Key:
Type in all cases: cell-based
786-0 = experiment: NCI-60 single-dose screen; conditions: Homo sapiens, single dose 10 µM, '-' = no inhibition, read-out: % Growth Inhibition
How it was run: (§1)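 Single concentration (10 μM) per compound, assayed by the NCI DTP against its 60-line panel covering leukemia, lung, colon, CNS, melanoma, ovarian, renal, prostate and breast cancers.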

A549/ATCC = experiment: NCI-60 single-dose screen; conditions: Homo sapiens, single dose 10 µM, '-' = no inhibition, read-out: % Growth Inhibition
How it was run: as §1

ACHN 1 = experiment: NCI-60 single-dose screen; conditions: Homo sapiens, single dose 10 µM, '-' = no inhibition, read-out: % Growth Inhibition
How it was run: as §1

BT-549 = experiment: NCI-60 single-dose screen; conditions: Homo sapiens, single dose 10 µM, '-' = no inhibition, read-out: % Growth Inhibition
How it was run: as §1

CAKI-1 = experiment: NCI-60 single-dose screen; conditions: Homo sapiens, single dose 10 µM, '-' = no inhibition, read-out: % Growth Inhibition
How it was run: as §1

COLO 205 = experiment: NCI-60 single-dose screen; conditions: Homo sapiens, single dose 10 µM, '-' = no inhibition, read-out: % Growth Inhibition
How it was run: as §1

DU-145 = experiment: NCI-60 single-dose screen; conditions: Homo sapiens, single dose 10 µM, '-' = no inhibition, read-out: % Growth Inhibition
How it was run: as §1

HCC-2998 = experiment: NCI-60 single-dose screen; conditions: Homo sapiens, single dose 10 µM, '-' = no inhibition, read-out: % Growth Inhibition
How it was run: as §1

HCT-116 = experiment: NCI-60 single-dose screen; conditions: Homo sapiens, single dose 10 µM, '-' = no inhibition, read-out: % Growth Inhibition
How it was run: as §1

HL-60(TB) = experiment: NCI-60 single-dose screen; conditions: Homo sapiens, single dose 10 µM, '-' = no inhibition, read-out: % Growth Inhibition
HOP-92 = experiment: NCI-60 single-dose screen; conditions: Homo sapiens, single dose 10 µM, '-' = no inhibition, read-out: % Growth Inhibition
How it was run: as §1

HS 578T = experiment: NCI-60 single-dose screen; conditions: Homo sapiens, single dose 10 µM, '-' = no inhibition, read-out: % Growth Inhibition
How it was run: as §1

HT29 = experiment: NCI-60 single-dose screen; conditions: Homo sapiens, HT-29, single dose 10 µM, '-' = no inhibition, read-out: % Growth Inhibition
How it was run: as §1

IGROV1 = experiment: NCI-60 single-dose screen; conditions: Homo sapiens, IGROV-1, single dose 10 µM, '-' = no inhibition, read-out: % Growth Inhibition
How it was run: as §1

K-562 = experiment: NCI-60 single-dose screen; conditions: Homo sapiens, K562, single dose 10 µM, '-' = no inhibition, read-out: % Growth Inhibition
How it was run: as §1

MDA-MB-468 = experiment: NCI-60 single-dose screen; conditions: Homo sapiens, single dose 10 µM, '-' = no inhibition, read-out: % Growth Inhibition
How it was run: as §1

MDA-MB231/ATCC = experiment: NCI-60 single-dose screen; conditions: Homo sapiens, MDA-MB-231, single dose 10 µM, '-' = no inhibition, read-out: % Growth Inhibition
How it was run: as §1

NCI-H23 = experiment: NCI-60 single-dose screen; conditions: Homo sapiens, single dose 10 µM, '-' = no inhibition, read-out: % Growth Inhibition
How it was run: as §1

NCI-H322M = experiment: NCI-60 single-dose screen; conditions: Homo sapiens, single dose 10 µM, '-' = no inhibition, read-out: % Growth Inhibition
How it was run: as §1

NCI-H460 = experiment: NCI-60 single-dose screen; conditions: Homo sapiens, single dose 10 µM, '-' = no inhibition, read-out: % Growth Inhibition
How it was run: as §1

NCI-H522 = experiment: NCI-60 single-dose screen; conditions: Homo sapiens, single dose 10 µM, '-' = no inhibition, read-out: % Growth Inhibition
How it was run: as §1

NCI/ADR-RES = experiment: NCI-60 single-dose screen; conditions: Homo sapiens, single dose 10 µM, '-' = no inhibition, read-out: % Growth Inhibition
How it was run: as §1

OVCAR-3 = experiment: NCI-60 single-dose screen; conditions: Homo sapiens, single dose 10 µM, '-' = no inhibition, read-out: % Growth Inhibition
How it was run: as §1

OVCAR-4 = experiment: NCI-60 single-dose screen; conditions: Homo sapiens, single dose 10 µM, '-' = no inhibition, read-out: % Growth Inhibition
How it was run: as §1

OVCAR-5 = experiment: NCI-60 single-dose screen; conditions: Homo sapiens, single dose 10 µM, '-' = no inhibition, read-out: % Growth Inhibition
How it was run: as §1

OVCAR-8 = experiment: NCI-60 single-dose screen; conditions: Homo sapiens, single dose 10 µM, '-' = no inhibition, read-out: % Growth Inhibition
How it was run: as §1

PC-3 = experiment: NCI-60 single-dose screen; conditions: Homo sapiens, single dose 10 µM, '-' = no inhibition, read-out: % Growth Inhibition
How it was run: as §1

RPMI-8226 = experiment: NCI-60 single-dose screen; conditions: Homo sapiens, single dose 10 µM, '-' = no inhibition, read-out: % Growth Inhibition
How it was run: as §1

RXF 393 = experiment: NCI-60 single-dose screen; conditions: Homo sapiens, single dose 10 µM, '-' = no inhibition, read-out: % Growth Inhibition
How it was run: as §1

SF-268 = experiment: NCI-60 single-dose screen; conditions: Homo sapiens, single dose 10 µM, '-' = no inhibition, read-out: % Growth Inhibition
How it was run: as §1

SF-539 = experiment: NCI-60 single-dose screen; conditions: Homo sapiens, single dose 10 µM, '-' = no inhibition, read-out: % Growth Inhibition
How it was run: as §1

SK-MEL-28 = experiment: NCI-60 single-dose screen; conditions: Homo sapiens, single dose 10 µM, '-' = no inhibition, read-out: % Growth Inhibition
How it was run: as §1

SK-MEL-2 = experiment: NCI-60 single-dose screen; conditions: Homo sapiens, single dose 10 µM, '-' = no inhibition, read-out: % Growth Inhibition
How it was run: as §1

SK-MEL-5 = experiment: NCI-60 single-dose screen; conditions: Homo sapiens, single dose 10 µM, '-' = no inhibition, read-out: % Growth Inhibition
How it was run: as §1

SK-OV-3 = experiment: NCI-60 single-dose screen; conditions: Homo sapiens, single dose 10 µM, '-' = no inhibition, read-out: % Growth Inhibition
How it was run: as §1

SN12C = experiment: NCI-60 single-dose screen; conditions: Homo sapiens, single dose 10 µM, '-' = no inhibition, read-out: % Growth Inhibition
How it was run: as §1

SNB-19 = experiment: NCI-60 single-dose screen; conditions: Homo sapiens, single dose 10 µM, '-' = no inhibition, read-out: % Growth Inhibition
How it was run: as §1

SR = experiment: NCI-60 single-dose screen; conditions: Homo sapiens, single dose 10 µM, '-' = no inhibition, read-out: % Growth Inhibition
How it was run: as §1

TK-10 = experiment: NCI-60 single-dose screen; conditions: Homo sapiens, single dose 10 µM, '-' = no inhibition, read-out: % Growth Inhibition
How it was run: as §1

U251 = experiment: NCI-60 single-dose screen; conditions: Homo sapiens, U-251, single dose 10 µM, '-' = no inhibition, read-out: % Growth Inhibition
How it was run: as §1

UACC-257 = experiment: NCI-60 single-dose screen; conditions: Homo sapiens, single dose 10 µM, '-' = no inhibition, read-out: % Growth Inhibition
How it was run: as §1

UACC-62 = experiment: NCI-60 single-dose screen; conditions: Homo sapiens, single dose 10 µM, '-' = no inhibition, read-out: % Growth Inhibition
How it was run: as §1

UO-31 = experiment: NCI-60 single-dose screen; conditions: Homo sapiens, single dose 10 µM, '-' = no inhibition, read-out: % Growth Inhibition
How it was run: as §1

[1] = system: four cancer cell lines (A-549, MCF-7, Panc-1, HT-29); experiment: Antiproliferative assay, average over four cancer cell lines; conditions: Homo sapiens; average of the four cancer cell lines; read-out: Average IC50 (GI50)
From the text: Table 2 presents the four cancer cell lines’ median inhibitory concentration (IC50) and GI50 (average IC50) values.
The IC50 values were derived from dose-response tests. The reported data are derived from at least two independent studies, each comprising three replicates per concentration. See Supplementary Material A1 for more details.

COc1ccc(-c2cc(-c3ccc(Cl)cc3)nc(SC)n2)cc1OC [Compound 23, 4-(4-Chlorophenyl)-6-(3,4-dimethoxyphenyl)-2-(methylthio)pyrimidine]
inhibition at 10 µM (786-0): 6.05% | inhibition at 10 µM (A549/ATCC): 19.8% | inhibition at 10 µM (ACHN 1): 9.14% | inhibition at 10 µM (BT-549): 4.8% | inhibition at 10 µM (CAKI-1): 24% | inhibition at 10 µM (COLO 205): 8.14% | inhibition at 10 µM (DU-145): 9.83% | inhibition at 10 µM (HCC-2998): < 0% | inhibition at 10 µM (HCT-116): 33.7% | inhibition at 10 µM (HL-60(TB)): 18.4% | inhibition at 10 µM (HOP-92): < 0% | inhibition at 10 µM (HS 578T): 17% | inhibition at 10 µM (HT29): 26.4% | inhibition at 10 µM (IGROV1): < 0% | inhibition at 10 µM (K-562): 39% | inhibition at 10 µM (MDA-MB-468): 6.77% | inhibition at 10 µM (MDA-MB231/ATCC): 23.2% | inhibition at 10 µM (NCI-H23): 7.41% | inhibition at 10 µM (NCI-H322M): < 0% | inhibition at 10 µM (NCI-H460): 11.4% | inhibition at 10 µM (NCI-H522): 31.2% | inhibition at 10 µM (NCI/ADR-RES): 14.9% | inhibition at 10 µM (OVCAR-3): < 0% | inhibition at 10 µM (OVCAR-4): 27.5% | inhibition at 10 µM (OVCAR-5): 11.9% | inhibition at 10 µM (OVCAR-8): 3.78% | inhibition at 10 µM (PC-3): 15.7% | inhibition at 10 µM (RPMI-8226): 20.1% | inhibition at 10 µM (RXF 393): < 0% | inhibition at 10 µM (SF-268): 11.5% | inhibition at 10 µM (SF-539): 15.7% | inhibition at 10 µM (SK-MEL-28): 8.87% | inhibition at 10 µM (SK-MEL-2): 8.95% | inhibition at 10 µM (SK-MEL-5): 24.5% | inhibition at 10 µM (SK-OV-3): 2.94% | inhibition at 10 µM (SN12C): 20.2% | inhibition at 10 µM (SNB-19): 3.67% | inhibition at 10 µM (SR): 34% | inhibition at 10 µM (TK-10): < 0% | inhibition at 10 µM (U251): 11.6% | inhibition at 10 µM (UACC-257): 10% | inhibition at 10 µM (UACC-62): < 0% | inhibition at 10 µM (UO-31): 22.9% | IC50 [1]: 48 nM

CCSc1nc(-c2ccc(Cl)cc2)cc(-c2ccc(OC)c(OC)c2)n1 [Compound 24, 4-(4-Chlorophenyl)-2-(ethylthio)-6-(3,4-dimethoxyphenyl)pyrimidine]
inhibition at 10 µM (786-0): 11.8% | inhibition at 10 µM (A549/ATCC): 23% | inhibition at 10 µM (ACHN 1): 7.24% | inhibition at 10 µM (BT-549): < 0% | inhibition at 10 µM (CAKI-1): 27.5% | inhibition at 10 µM (COLO 205): 35.4% | inhibition at 10 µM (DU-145): 7.4% | inhibition at 10 µM (HCC-2998): 4.44% | inhibition at 10 µM (HCT-116): 30% | inhibition at 10 µM (HL-60(TB)): 22.8% | inhibition at 10 µM (HOP-92): 1.94% | inhibition at 10 µM (HS 578T): 20.6% | inhibition at 10 µM (HT29): 28.3% | inhibition at 10 µM (IGROV1): < 0% | inhibition at 10 µM (K-562): 41.5% | inhibition at 10 µM (MDA-MB-468): 11.3% | inhibition at 10 µM (MDA-MB231/ATCC): 16.9% | inhibition at 10 µM (NCI-H23): 1.67% | inhibition at 10 µM (NCI-H322M): 13.8% | inhibition at 10 µM (NCI-H460): < 0% | inhibition at 10 µM (NCI-H522): 2.36% | inhibition at 10 µM (NCI/ADR-RES): 17.5% | inhibition at 10 µM (OVCAR-3): < 0% | inhibition at 10 µM (OVCAR-4): 26.4% | inhibition at 10 µM (OVCAR-5): 11% | inhibition at 10 µM (OVCAR-8): 6.83% | inhibition at 10 µM (PC-3): 26.4% | inhibition at 10 µM (RPMI-8226): 26.4% | inhibition at 10 µM (RXF 393): 23.5% | inhibition at 10 µM (SF-268): 16.9% | inhibition at 10 µM (SF-539): 7.9% | inhibition at 10 µM (SK-MEL-28): 5.5% | inhibition at 10 µM (SK-MEL-2): 11.9% | inhibition at 10 µM (SK-MEL-5): 28.9% | inhibition at 10 µM (SK-OV-3): < 0% | inhibition at 10 µM (SN12C): 22.8% | inhibition at 10 µM (SNB-19): 3.01% | inhibition at 10 µM (SR): 39.6% | inhibition at 10 µM (TK-10): < 0% | inhibition at 10 µM (U251): 14.7% | inhibition at 10 µM (UACC-257): 13.5% | inhibition at 10 µM (UACC-62): < 0% | inhibition at 10 µM (UO-31): 25.8% | IC50 [1]: 31 nM

Reference: article PMC11576293, “New series of 4,6-diaryl pyrimidines: facile synthesis and antiproliferative activity as dual EGFR/VEGFR-2 inhibitors” (Frontiers in Chemistry, 2024)
